Laboratory results reported in patent US11332472B2, “Substituted piperidines as inhibitors of ubiquitin specific protease 7” (LES LABORATOIRES SERVIER, priority 2017, dated 2022).

How the values were obtained:
[1] = tested on: Z138 mantle cell lymphoma tumour cell line; experiment: In vitro cytotoxicity, MTT assay, Z138 cells; type: cell-based; conditions: Homo sapiens, Z-138; Z138 tumour cell line (underlined values); 96 hours exposure
Description: (§1) The cytotoxicity studies were evaluated by MTT assay and carried out on MM 1S multiple myeloma or Z138 mantle cell lymphoma tumour cell lines. The cells are distributed onto microplates and exposed to the test compounds for 96 hours. The cell viability is then quantified by a colorimetric assay, the Microculture Tetrazolium Assay (Carmichael et. al., Cancer Res. […], 47, 936-942).

[2] = tested on: MM 1S multiple myeloma tumour cell line; experiment: In vitro cytotoxicity, MTT assay, MM1S cells; type: cell-based; conditions: Homo sapiens, MM1.S, 96 hours exposure
Description: as §1

[3] = biological target: T1, USP7 (Homo sapiens, UniProt Q93009, C315A); experiment: Inhibition of USP7 by Fluorescence Intensity (FLINT) readings, Ubiquitin-Rhodamine-110 substrate; type: biochemical; conditions: 0.25 nM His-His-USP7 (aa208-560, [C315A]); compound 60 minutes at 30° C.; 500 nM Ubiquitin-Rhodamine substrate; 11-point curves
T1 construct: 0.25 nM His-His-USP7 (aa208-560, [C315A]) was incubated with compound; His-His (N)
T1 sequence (Q93009 208-560 C315A): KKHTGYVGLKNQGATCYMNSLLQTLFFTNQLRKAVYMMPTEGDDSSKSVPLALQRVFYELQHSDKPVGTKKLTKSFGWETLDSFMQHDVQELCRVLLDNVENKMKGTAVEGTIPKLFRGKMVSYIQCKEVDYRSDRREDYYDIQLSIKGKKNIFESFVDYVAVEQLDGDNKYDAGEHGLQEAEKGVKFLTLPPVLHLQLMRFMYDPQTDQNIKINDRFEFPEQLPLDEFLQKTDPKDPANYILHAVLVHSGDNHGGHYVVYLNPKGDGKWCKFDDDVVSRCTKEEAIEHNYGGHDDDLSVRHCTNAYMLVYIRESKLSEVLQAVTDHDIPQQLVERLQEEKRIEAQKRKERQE
Method in brief: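 His-His-USP7 (aa208-560, C315A) at 0.25 nM was preincubated with compound for 60 min at 30 °C in 100 mM Bicine pH 8.0, 0.01% Triton X-100, 1 mM TCEP, 10% DMSO. 500 nM ubiquitin-rhodamine-110 was then added, with fluorescence (Ex 485/Em 535 nm) read every 3 min for 21 min. IC50 came from kinetic-rate inhibition, 11-point curves, 4-parameter fit.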

Row | Structure (SMILES) | IC50 [1] | IC50 [2] | IC50 [3]
1 | O=C([C@@H]1CCCC[C@H]1n1cccc1)N1CCC(O)(Cn2cnc3c(ccn3-c3ccccc3)c2=O)CC1 (single isomer, unassigned) [Example 14, 3-[[4-hydroxy-1-[trans-2-pyrrol-1-ylcyclohexanecarbonyl]-4-piperidyl]methyl]-7-phenyl-pyrrolo[2,3-d]pyrimidin-4-one] | 14.7 nM | 6.42 nM | 27.1 nM
2 | COc1ccc(-n2ccc3c(=O)n(CC4(O)CCN(C(=O)[C@@H]5CCC(F)(F)C[C@H]5c5ccccc5)CC4)cnc32)cc1 (single isomer, unassigned) [Example 34, 3-[[1-[trans-4,4-difluoro-2-phenyl-cyclohexanecarbonyl]-4-hydroxy-4-piperidyl]methyl]-7-(4-methoxyphenyl)pyrrolo[2,3-d]pyrimidin-4-one] | 5.66 nM | 24.5 nM | 23.1 nM
3 | O=C(C1CC(F)CCC1c1ccccc1)N1CCC(O)(Cn2cnc3c(ccn3-c3ccccc3)c2=O)CC1 (centres unmarked) [Example 37, 3-[[1-[5-fluoro-2-phenyl-cyclohexanecarbonyl]-4-hydroxy-4-piperidyl]methyl]-7-phenyl-pyrrolo[2,3-d]pyrimidin-4-one] | – | 84.1 nM | 46.3 nM
